Test results as given in article PMC3479139, “Diverse Small Molecule Inhibitors of Human Apurinic/Apyrimidinic Endonuclease APE1 Identified from a Screen of a Large Public Collection” (PLoS ONE, 2012).

Columns and labels:
APE1 [1] = molecular target: T1, APE1 (Homo sapiens, UniProt P27695); assay: Fluorogenic kinetic qHTS APE1 incision assay (primary screen and retest of cherrypicked samples); type: biochemical;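 note: purified APE1 cleaving a fluorophore/dark-quencher labelled 17-mer duplex DNA bearing a tetrahydrofuran AP site, fluorescence rise followed kinetically over the first 2 min, inhibition normalized to controls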
T1 construct: made in house
T1 sequence (P27695 whole entry): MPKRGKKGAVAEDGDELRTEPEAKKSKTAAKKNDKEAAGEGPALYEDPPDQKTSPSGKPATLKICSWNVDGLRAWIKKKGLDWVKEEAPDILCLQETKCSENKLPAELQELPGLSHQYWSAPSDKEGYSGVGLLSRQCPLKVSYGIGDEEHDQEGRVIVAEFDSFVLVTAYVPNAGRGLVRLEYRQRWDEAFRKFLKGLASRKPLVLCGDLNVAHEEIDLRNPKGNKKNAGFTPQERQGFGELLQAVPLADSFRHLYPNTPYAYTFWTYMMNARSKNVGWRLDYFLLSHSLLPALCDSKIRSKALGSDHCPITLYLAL
Procedure: All screening operations were performed on a fully integrated robotic system (Kalypsys, San Diego, CA) [28] with library plates screened proceeding from the lowest to the highest concentration to minimize compound carryover [26]. Vehicle-only plates, with DMSO being pin-transferred to the entire column 5–48 compound area, were included regularly throughout the screen in order to record any systematic shifts in assay signal. During the screen, reagent bottles were kept at 4°C and all liquid lines were covered with aluminum foil to minimize degradation.
Screening data were corrected and normalized, and concentration–effect relationships was derived using in-house developed algorithms [25].
To screen for inhibitors of APE1 incision activity, we employed a purified-enzyme biochemical assay with a model substrate featuring a red-shifted fluorescent reporter in combination with a dark non-emitting quencher. These moieties were incorporated as end labels onto a 17-mer double-stranded DNA fragment containing a centrally-located tetrahydrofuran AP site sugar mimetic, which serves as the APE1 cleavage site. Upon APE1-catalyzed strand scission immediately 5′ to the AP site analog, the shortened oligodeoxynucleotide carrying the fluorescent reporter spontaneously dissociates from the rest of the substrate, leading to an increase in fluorescence due to its spatial separation from the dark quencher (Figure 1A).
Using a high-speed whole-plate fluorescence imager, the assay data for the entire screen was conducted in kinetic mode, with the APE1 incision reaction being monitored over the initial linear time frame of 2 min (Figure 1B). Thus, any inhibition associated with each sample was computed from the alteration in fluorescence intensity over the time-course measurement period, after normalization against the appropriate controls (Figure 1B, inset).

APE1 [2] = molecular target: T1, APE1; assay: Fluorescence polarization (FP) displacement assay of APE1 binding to AP-DNA probe; settings: read-out: FP IC50;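 note: TAMRA 5′-labeled duplex DNA with THF abasic site (5 nM) and APE1 (20 nM), Mg2+-free buffer, 15 min at room temperature, inhibition seen as lowered polarization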
APE1 [3] = molecular target: T1, APE1; assay: Gel-based radiotracer (32P) APE1 incision assay; type: biochemical; set-up: concentration or dose not given beside the values; settings: percent incision shown; entries 1-112;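 note: APE1 incision reactions ran 5 min at 37 °C, with cleaved product and intact substrate resolved electrophoretically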
E. coli Endo IV = molecular target: T2, E. coli Endo IV (Escherichia coli, UniProt P0A6C1); assay: E. coli Endo IV profiling counterscreen; type: biochemical; settings: read-out: EndoIV IC50;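 note: selectivity counterscreen of candidate APE1 inhibitors against the bacterial endonuclease Endo IV, run in the same assay format as the primary APE1 high-throughput screen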
T2 construct: made in house
Source text: In order to screen out nonselective compounds, such as non-specific DNA binders and inhibitors of related enzymes, we used a miniaturized ThO DNA displacement assay and a counterscreen against the bacterial endonuclease E. coli Endo IV, respectively, following the previously published protocols [21].
To probe the selectivity of the candidate APE1 inhibitors, we tested them against E. coli EndoIV [36], employing the same assay as used in the HTS.

[4] = molecular target: double-stranded 17-mer DNA fragment; assay: ThO (Thiazole Orange) DNA displacement assay; type: binding; settings: for IC50: read-out: ThO-DNA binding IC50;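 for all read-outs here: miniaturized displacement of the intercalating dye from unlabeled duplex DNA, used to flag nonspecific DNA binders, chiefly intercalators, groove binders may be missed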
[5] = initial quantitative high-throughput screen, read-out: APE1 qHTS IC50
[6] = retest of cherrypicked sample, read-out: APE1 Retest IC50

SMILES	IC50 (APE1 [1]; [5]) [µM]	IC50 (APE1 [1]; [6]) [µM]	IC50 (APE1 [2]) [µM]	Radiotracer Assay (%Activity) (APE1 [3]) [%]	IC50 (E. coli Endo IV) [µM]	IC50 [4] [µM]	ThO assay signal behaviour (autofluorescence interference) [4]
Oc1cc(O)c2c(c1)OC(c1ccc(O)c(O)c1)C(O)C2 (stereo not shown) [NCGC00095270]	3.2	2.8	> 57	35.9	> 57	> 57	
CSC1=N/C(=C\c2ccc(Br)o2)C(=O)S1 [MLS000534059]		8.9	> 57	36	> 57	> 57	
O=C(N/N=C/c1cccn1-c1cccc(C(=O)O)c1)Nc1ccccc1 [MLS000588622]	5	3.5	> 57	32	> 57	> 57	
O=C1CCCC(O)=C1N=Nc1cccc(C(=O)O)c1 [MLS000759952]	10	12.6	> 57	10	> 57	> 57	
Cc1cc(/C=C2\C(=O)NC(=O)N(Cc3ccco3)C2=O)c(C)n1-c1ccc(C(=O)O)cc1 [MLS000807042]	1.1	14.1	> 57	33	> 57	> 57	
O=c1cc(-c2ccc(O)cc2)oc2c(C3OCC(O)C(O)C3O)c(O)c(C3OC(CO)C(O)C(O)C3O)c(O)c12 (stereo not shown) [MLS000876755]	19.9	4.5	> 57	31	> 57	> 57	
Cc1ccc(NC(=O)CN2C(=O)N/C(=C\c3cccn3-c3cccc(C(=O)O)c3)C2=O)cc1 [MLS000686355]	3.5	1.4	14.1	15	> 57	> 57	
O=c1nc(N/N=C/c2ccco2)cn[nH]1 [MLS000685729]		5	> 57	28	> 57	> 57	
O=C(NC1CC1)c1cc(-c2ccco2)nc2ccccc12 [MLS001005620]	11.2	4.4	> 57	17	> 57	> 57	
Nc1ccc2c(c1Cl)C(=O)c1ccc(N)c(Cl)c1C2=O [MLS000737360]	8.9	6.3	7.9	17	> 57	6.3	
CC(=O)[C@]1(O)Cc2c(O)c3c(c(O)c2[C@@H](O[C@H]2C[C@H](N)[C@H](O)[C@H](C)O2)C1)C(=O)c1ccccc1C3=O [NCGC00093976]	19.9	14.1	3.2	4.6	25.1		strong dose-dependent fluorescence signal increase
O=C(O)C[C@@H]1C(=O)O[C@@H]2C(COC(=O)c3cc(O)c(O)c(O)c3)O[C@@H](OC(=O)c3cc(O)c(O)c(O)c3)[C@@H](OC(=O)c3cc(O)c(O)c4c3[C@H]1[C@H](O)C(=O)O4)[C@H]2OC(=O)c1cc(O)c(O)c(O)c1 (stereo partly shown) [MLS000697665]	0.01	0.01	14.1	29	> 57	0.4	
O=C(/C=C/c1ccc(O)c(O)c1)O[C@H](Cc1ccc(O)c(O)c1)C(=O)O [MLS000697677]	0.1	0.6	> 57	38	> 57	> 57	
CC1(CC(=O)N/N=C/c2cc([N+](=O)[O-])c(O)cc2O)OCCO1 [MLS000548032]	14.1	12.6	> 57	13	> 57	> 57	
O=C(CCc1n[nH]c(=O)[nH]c1=O)N/N=C/c1ccco1 [MLS000685551]	19.9	12.6	> 57	33	> 57	> 57	
O=C(c1cc(C(=O)c2ccco2)cc(C(=O)c2ccco2)c1)c1ccco1 [MLS000699310]	31.6	5	> 57	6	> 57	> 57	
O=C(O)c1ccc(N2C(=O)c3cccc4c(C(=O)O)ccc(c34)C2=O)cc1 [MLS000713642]	12.6	7.9	15.8	28	> 57	> 57	
Cc1ccc(S(=O)(=O)Nc2csc(C)c2C(=O)O)cc1 [MLS000850015]	11.2	15.8	> 57	49	> 57	> 57	
CCOC(=O)C1CCN(/C=C2/C(=O)NC(=O)N(Cc3ccco3)C2=O)CC1 [MLS000113273]	14.1	3.2	> 57	3	> 57	> 57	
Nc1ccc(Nc2ccccc2)c(S(=O)(=O)O)c1 [MLS000737782]	14.1	15.8	> 57	9	> 57	> 57	
O=c1oc2c(O)c(O)cc3c(=O)oc4c(O)c(O)cc1c4c23 [NCGC00094975]	0.01	0.01	31.6	2.4	> 57	0.1	
CCCSC1=N/C(=C\C=C\c2ccco2)C(=O)S1 [MLS000114057]	4	17.8	> 57	40	> 57	> 57	
Cc1cccc(C)c1NC(=O)CSc1nnc(-c2ccco2)c(-c2ccco2)n1 [MLS000556463]	15.6	3.6	> 57	43	> 57	> 57	
COc1cc(O)c2c(c1)oc(=O)c1c3cc(O)c(O)cc3oc21 [NCGC00163667]	10	4.4	> 57	8.4	> 57	10	
CC1OC(OCC2OC(Oc3c(-c4ccc(O)cc4)oc4cc(O)cc(O)c4c3=O)C(O)C(O)C2O)C(O)C(O)C1O (stereo not shown) [MLS000876823]	3.5	3.1	> 57	30	> 57	> 57	
O=C(CSc1nc(-c2ccc(F)cc2)nc2c1Cc1ccccc1O2)Nc1ccc(C(=O)O)cc1 [MLS000673045]	12.6	4.5	> 57	36	14.1	3.2	
Cc1ccccc1N=C1NC(=O)/C(=C/c2cccn2-c2cccc(C(=O)O)c2)S1 [MLS000704580]	17.8	11.2	> 57	7	> 57	> 57	
Cc1cc(C)c2nc(-c3ccco3)cc(C(=O)O)c2c1 [MLS000703171]	7.1	12.6	> 57	23	> 57	> 57	
